PMC6968488, “In vitro and in vivo evaluation of didymin cyclodextrin inclusion complexes: characterization and chemosensitization activity” (Drug Delivery, 2019)
Converted amounts (≈) assume the structure as drawn. Read-outs that look alike come from different tables or passages of the source.

Experiments:
MCF-7/ADR tumor = assay: In vivo antitumor efficacy in mice bearing resistant tumors; parameters: species or system BALB/c nude mice; details: DOX 5 mg/kg/3 days i.p.; Didymin/HP-β-CD 20 mg/kg/day i.g.; 14 days
Method: To further investigate the chemosensitivity of […] inclusion complex, female BALB/c nude mice (5-6 weeks old, Shanghai Laboratory Animal Center, China) were injected subcutaneously with MCF-7/ADR cells (10^7 cells/per mouse). […] (1) Control group, 0.9% saline (0.2 mL/kg/day, i.p.); (2) DOX group, DOX (5 mg/kg/3 days, i.p.); (3) DOX + […] group, DOX (5 mg/kg/3 days, […] was given by oral gavage (i.g.) while DOX was intraperitoneal injected (i.p.). DOX injection was performed 30 min after the […] by gavage. The mouse weight and tumor volume were measured every day. The tumor volume was obtained using the formula (Yao et al., [2019]). On day 14, the mice were sacrificed, and tumor tissues were collected, fixed and sliced for pathological examination (H&E staining, Ki67 immunohistochemical staining, and TUNEL assay).

MCF-7/ADR cells [1] = assay: MTT cytotoxicity / chemosensitivity assay, resistant tumor cells; assay type: cell-based
Method: (§1) The cytotoxicity of didymin on various cell lines was examined by MTT assay as previously reported (Yao et al., [2019]). The didymin solution was prepared by dissolving in DMSO at different concentrations and diluted with the fresh medium right before the treatment. The didymin inclusion complex was dispersed in the sterilized water and then diluted with the fresh medium before treatment. Experiments involving healthy cells (HUVEC, H9C2, and PC12) by culturing 100 μL cell suspension (5 × 10^4 cell/mL) in 96 well plates. After 24 h incubation, the didymin or didymin inclusion complexes contained medium was used to replace the overnight medium and cultured for 48 h, respectively. After that, the MTT solution at the concentration of 5 mg/mL was added to each well. After 4 h incubation, the medium was removed, and the MTT formazan was dissolved by DMSO. Then the DMSO solution is measured using a microplate reader with the absorbance wavelength at 570 nm. The untreated cells were used as control. The cell viability (%) was calculated as follows, cell viability (%) = Asample/Acontrol ×100.
(§2) The MCF-7 and MCF-7/ADR cells cytotoxicity of the combination of didymin and doxorubicin were evaluated by MTT assay, as mentioned above.

MCF-7 cells = assay: MTT cytotoxicity / chemosensitivity assay, sensitive tumor cells; assay type: cell-based; details: MCF-7, without DOX, tested concentrations
Method: as §1, §2

Acute toxicity study = assay type: in vivo, BALB/c mice; details: mice, single oral dose 250 mg/kg
Method: An acute toxicity test was conducted as previously reported (Kandhare et al., [2016]). In brief, the BALB/c mice weighing about 18–22 g were administrated of didymin at a single dose of 250 mg/kg using oral gastric gavages. […] On 15th day animals were sacrificed, and the major organs were collected, fixed, and sliced for H&E staining.

[2] = Pharmacokinetic study after oral administration; assay type: in vivo; details: male, rat, plasma, SD rats, 25 mg/kg
Method: All animal experiments were carried out under the Guide for Care and Use of Laboratory Animals and approved by the approval of the Ethics Committee of Wenzhou Medical University. Male SD rats ([…], Shanghai Laboratory Animal Center, China) weighing 220–250 g (n = 6 per group) were studied in the pharmacokinetic study. Free didymin and two types of didymin inclusion complexes (25 mg/kg, respectively) were orally administered with sterilized water. Then blood samples were collected from the orbit venous plexus at predetermined time intervals. The blood samples were then centrifuged at 15000 r/min for 10 min, then dried at 40 °C under nitrogen flow to solid-phase extraction. Methanol was added to dissolve the residue. Then the concentration of didymin in plasma was determined by HPLC methods and calculated the pharmacokinetic parameters.

MCF-7/ADR cells [3] = assay: Intracellular uptake study of DOX; assay type: cell-based; details: DOX 10 μM, 4 h, fluorescence microscopy and quantitative analysis
Method: The effect of didymin on the intracellular uptake of the P-gp substrate was conducted as previously reported (Dai et al., [2016]; Yao et al., [2019]). Briefly, MCF-7/ADR cells were seeded in a 6-well plate at 4 × 10^5 cell/mL overnight before the experiment. Then the cancer cells were incubated with DOX (10 μM) at a concentration with or without didymin formulations for 4 h. Then, the treated cells were washed with ice-cold PBS three times and recorded under fluorescence microscopy (Nikon, Tokyo, Japan). In an independent study, after treatment, the cells were washed with ice-cold PBS and then lysed. Then acetonitrile was added into the cell lysate to extract the didymin via protein precipitation (PP)/extraction method. The didymin concentration in the supernatant was determined by the previously validated HPLC method.

[4] = MTT cytotoxicity assay on healthy cells; assay type: cell-based; details: all tested concentrations 10 μM∼200 μM, read-out: cell viability
Method: as §1

[5] = Solubility study of didymin in different media (HPLC); assay type: physicochemical; details: for solubility at 72 h: thermodynamic from solid, room temperature, 72 h stirring
Method: Add excess didymin into a different medium (water, ethanol, methanol, 1% β-CD, and 1% HP-β-CD), and keep stirring at room temperature for 72 h. After that, 1.5 mL of the suspension was taken for centrifugation to take the supernatant. After filtering with a […] filter membrane (Shanghai Boguang Biotechnology Co., Ltd, Shanghai, China), the concentration of each solution was measured by the HPLC method.
An analytical HPLC method was developed to determine the concentration of didymin. The chromatographic conditions are: Agilent HC-C18 column (4.6 mm × 250 mm, 5 μm) (Agilent Technologies, Inc., Santa Clara, CA, USA), the mobile phase was phosphate buffer (pH 6.8)–methanol (45:55), the detection wavelength was 283 nm, the column temperature was 25 °C, and the flow rate was 1.0 mL/min, and. The samples were filtered (0.45 μm) and deaerated before use.

P-gp transporter = biological target: T1, P-gp transporter (Homo sapiens, UniProt P08183); assay: Calcein-AM extrusion assay; assay type: cell-based; details: MCF-7/ADR, 30 min pre-incubation then calcein-AM 30 min
T1 construct: endogenous in cells; host or cells: MCF-7/ADR cells
T1 sequence (P08183 whole entry): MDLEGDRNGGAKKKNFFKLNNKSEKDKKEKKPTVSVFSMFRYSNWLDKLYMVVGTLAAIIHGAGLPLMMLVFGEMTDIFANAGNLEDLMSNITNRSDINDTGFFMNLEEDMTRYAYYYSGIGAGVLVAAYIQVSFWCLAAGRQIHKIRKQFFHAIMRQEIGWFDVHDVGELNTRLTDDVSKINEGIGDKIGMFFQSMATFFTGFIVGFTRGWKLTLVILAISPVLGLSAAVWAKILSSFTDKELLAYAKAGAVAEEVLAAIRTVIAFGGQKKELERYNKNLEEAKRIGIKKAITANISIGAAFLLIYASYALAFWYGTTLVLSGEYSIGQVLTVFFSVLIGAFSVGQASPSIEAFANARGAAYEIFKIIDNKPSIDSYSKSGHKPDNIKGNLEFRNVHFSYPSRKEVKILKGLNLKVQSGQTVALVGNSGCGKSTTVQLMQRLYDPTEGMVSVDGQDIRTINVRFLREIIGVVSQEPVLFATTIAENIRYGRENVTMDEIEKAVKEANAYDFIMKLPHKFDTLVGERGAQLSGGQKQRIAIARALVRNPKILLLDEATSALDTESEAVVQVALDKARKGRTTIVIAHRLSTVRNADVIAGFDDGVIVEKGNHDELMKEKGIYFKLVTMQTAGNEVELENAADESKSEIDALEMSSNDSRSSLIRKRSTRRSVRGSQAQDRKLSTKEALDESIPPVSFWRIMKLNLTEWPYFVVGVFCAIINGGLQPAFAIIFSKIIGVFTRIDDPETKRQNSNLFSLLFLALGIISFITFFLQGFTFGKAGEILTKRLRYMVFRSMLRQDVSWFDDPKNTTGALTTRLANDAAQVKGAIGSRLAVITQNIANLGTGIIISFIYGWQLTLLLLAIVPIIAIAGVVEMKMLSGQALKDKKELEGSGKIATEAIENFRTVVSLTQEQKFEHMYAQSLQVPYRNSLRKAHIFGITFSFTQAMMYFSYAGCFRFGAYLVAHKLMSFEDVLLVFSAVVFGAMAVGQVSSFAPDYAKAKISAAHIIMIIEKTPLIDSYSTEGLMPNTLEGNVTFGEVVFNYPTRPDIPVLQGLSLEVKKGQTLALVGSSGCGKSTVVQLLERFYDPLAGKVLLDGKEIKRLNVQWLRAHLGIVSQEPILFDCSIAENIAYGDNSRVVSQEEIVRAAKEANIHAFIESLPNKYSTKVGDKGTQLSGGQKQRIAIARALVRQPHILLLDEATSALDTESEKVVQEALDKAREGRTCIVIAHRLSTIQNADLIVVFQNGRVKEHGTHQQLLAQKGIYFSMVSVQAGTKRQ
Method: The effect of didymin and its inclusion complex on the efflux function of P-gp transporter was studied using calcein-AM extrusion assay as reported (Dai et al., [2016]). Briefly, MCF-7/ADR cells were seeded in a 6-well plate at 2 × 10^5 cell/mL overnight before the experiment. The cancer cell was incubated with verapamil or didymin formulations for 30 min and then treated with calcein-AM for another 30 min. Then, the treated cells were washed with ice-cold PBS three times and recorded under fluorescence microscopy. In an independent study, after treatment, the cells were washed, trypsinized, and collected by centrifuge. The collected cells were then washed with PBS and analyzed by flow cytometry (BD Bioscience, Franklin Lakes, NJ, USA). The data was collected with 1 × 10^5 events counter per samples

With `COc1cccc2c1C(=O)c1c(O)c3c(c(O)c1C2=O)C[C@@](O)(C(=O)CO)C[C@@H]3O[C@H]1C[C@H](N)[C@H](O)[C@H](C)O1` [DOX, doxorubicin, reference compound] the tumor growth inhibition (MCF-7/ADR tumor) was 34% and the IC50 (MCF-7/ADR cells [1]; Homo sapiens, NCI/ADR-RES, free DOX) was over 20 µM.
With `COc1ccc(C2CC(=O)c3c(O)cc(OC4OC(COC5OC(C)C(O)C(O)C5O)C(O)C(O)C4O)cc3O2)cc1` (stereo not drawn) [didymin, isosakuranetin-7-beta-rutinoside] the cytotoxicity alone (MCF-7 cells) was “did not exert toxicity on cancer cells”, the “abnormal behaviors and weight change in the observation period” value (Acute toxicity study; 14 days) was “did not show any abnormal behaviors and weights change” and the “H&E staining of major organs” value (Acute toxicity study; after 14 days) was “no signs of any toxicity”. For the same molecule, the Cmax [2] was 2770 ng/mL, the Tmax [2] was 11.4 ± 3 min and the half-life [2] was 105 ± 9.6 min. The AUC(0-t) ([2]; read-out: AUC0–12 h) was 5910 ng·h/mL, the DOX intracellular accumulation (MCF-7/ADR cells [3]) was “increase the DOX intracellular accumulation” and the viability at 48 h ([4]; human, HUVEC cells) was over 90%. For the same molecule, the viability at 48 h ([4]; rat, H9C2 cells, H9C2, 48 h) was over 90%, the viability at 48 h ([4]; rat, PC12 cells, PC12, 48 h) was over 90% and the cytotoxicity alone (MCF-7/ADR cells [1]; without DOX, tested concentrations) was “did not exert toxicity on cancer cells”. For the same molecule, the solubility at 72 h ([5]; aqueous with cosolvent or surfactant or cyclodextrin, 1% HP-β-CD solution, read-out: solubility in 1% HP-β-CD solution) was 735 ± 370 µg/mL (≈ 1240 µM), the solubility at 72 h ([5]; organic solvent or mixture, ethanol, read-out: solubility in ethanol) was 1240 ± 720 µg/mL (≈ 2090 µM) and the solubility at 72 h ([5]; organic solvent or mixture, methanol, read-out: solubility in methanol) was 11200 ± 1190 µg/mL (≈ 18900 µM). The “increase of aqueous solubility compared to free didymin” value ([5]; presence of HP-β-CD) was 6.9 times, the “increase of aqueous solubility compared to free didymin” value ([5]; presence of β-CD) was 4.7 times and the solubility at 72 h ([5]; water, read-out: solubility in water) was 107 ± 120 µg/mL (≈ 180 µM). The “P-gp efflux function (intracellular calcein fluorescence)” value (P-gp transporter) was “significantly inhibit the function of P-gp transporter”.
